Laboratory results: the SangsterLogP compilation

Assay: method code SF, from Craig, N. (1990). Drug Compendium. In Hansch, C (Ed.), Comprehensive Medicinal Chemistry. Pergamon Press.

SMILES | logP | also measured
CCC1(CC)C(=O)NCC(C)C1=O (stereo not drawn) | 0.78 | 
CCN[C@@H](C)Cc1cccc(C(F)(F)F)c1 | 3.36 | 
NCc1ccccc1Sc1ccccc1CO | 2.39 | 
CN(C)CCN1C(=O)c2ccccc2Nc2cc(Cl)ccc21 | 3.73 | 
CCNC1C2CCC(C2)C1c1ccccc1 (stereo not drawn) | 3.2 | 
CCN(CC)CCNc1ccc(CO)c2sc3ccccc3c(=O)c12 | 2.7 | 
OCCN1CCN([C@@H]2C[C@@H](c3ccc(F)cc3)c3ccc(C(F)(F)F)cc32)CC1 | 4.39 | 
N=C(N)N1CCc2ccccc2C1 | 0.75 | 
NC(=O)CCC/N=C(\c1ccc(Cl)cc1)c1cc(F)ccc1O | 2.97 | 
CCC(O)C(CC(C)N(C)C)(c1ccccc1)c1ccccc1 (stereo not drawn) | 4.27 | 
NC(=O)c1csc([C@@H]2O[C@H](CO)[C@@H](O)[C@H]2O)n1 | -1.73 | 
CCC(=O)O[C@]1(c2ccccc2)CCN(C)C[C@H]1CC | 3.61 | 
COc1cc(S(C)=O)ccc1-c1nc2ncccc2[nH]1 (stereo not drawn) | 1.17 | 
CC(=O)[C@H]1CC[C@H]2[C@@H]3C[C@H](C)C4=CC(=O)CC[C@]4(C)[C@H]3C(=O)C[C@]12C | 2.75 | 
CN1CC[C@@]23CCCC[C@@H]2[C@@H]1Cc1ccc(O)cc13 | 3.11 | 
CC(=O)O[C@H]1C[C@H](O[C@H]2[C@@H](O)C[C@H](O[C@H]3[C@@H](O)C[C@H](O[C@H]4CC[C@@]5(C)[C@H](CC[C@@H]6[C@@H]5CC[C@]5(C)[C@@H](C7=CC(=O)OC7)CC[C@]65O)C4)O[C@@H]3C)O[C@@H]2C)O[C@H](C)[C@H]1O | 1.97 | 
COc1cc(NS(=O)(=O)c2ccc(N)cc2)ncn1 | 0.7 | 
CC(C)S(=O)(=O)n1c(N)nc2ccc(/C(=N\O)c3ccccc3)cc21 | 3.1 | 
C=CCC1(C(C)CC)C(=O)NC(=O)NC1=O (stereo not drawn) | 1.47 | 

SMILES | logP | also measured
COc1cc2c(cc1OC)C(CCCCC1NCCc3cc(OC)c(OC)cc31)NCC2 (stereo not drawn) | 3.35 | 
OC[C@@H](O)[C@H]1O[C@@H]2O[C@H](C(Cl)(Cl)Cl)O[C@@H]2[C@H]1O | 1.02 | 
O=[N+]([O-])c1cnc(-c2ccc(F)cc2)n1CCO | 1.33 | 
CSc1ccc(OCc2ncc([N+](=O)[O-])n2C)cc1 | 2.5 | 
Cc1ncc([N+](=O)[O-])n1CCc1ccncc1 | 0.06 | 
N#Cc1ccccc1OCC(O)CNCCNC(=O)Cc1ccc(O)cc1 (stereo not drawn) | 0.92 | 
Nc1ccc(S(=O)(=O)c2ccc(N)cc2)cc1 | 1.03 | 
CCOC(=O)[C@H](CCc1ccccc1)N[C@H]1CCCN2CCC[C@@H](C(=O)O)N2C1=O |  | logD (pH 4.9): 0.55
Cc1ccccc1-n1c(C)nc2ccccc2c1=O | 2.5 | 
CCOC(=O)[C@H](CCc1ccccc1)N[C@@H](C)C(=O)N1CCC[C@H]1C(=O)O |  | logD (pH 4.9): -0.07
CCC(OC(C)=O)C(CC(C)N(C)C)(c1ccccc1)c1ccccc1 (stereo not drawn) | 4.27 | 
CCOC(=O)C=C1SC(N2CCCCC2)C(=O)N1C (stereo not drawn) |  | logD (pH 7.4): 2.3
C[C@@H]1C[C@H]2[C@@H]3C[C@H](F)C4=CC(=O)C=C[C@]4(C)[C@@]3(F)[C@@H](O)C[C@]2(C)[C@H]1C(=O)COC(=O)C(C)(C)C | 3.86 | 
CCc1ncc([N+](=O)[O-])n1CCNC(=S)OC | 1.46 | 
C[C@]12CCC(=O)C=C1CC[C@@H]1[C@@H]2CC[C@@]2(C)[C@H]1CC[C@]2(O)C(=O)CO | 2.52 | 
CC(C)/N=C(N)/N=C(\N)Nc1ccc(Cl)cc1 | 2.53 | 
Nc1ncn([C@@H]2O[C@H](CO)[C@@H](O)[C@@H]2O)c(=O)n1 | -2.17 | 
Cc1ncc([N+](=O)[O-])n1CCOC(N)=O | -0.29 | 
CN(C)CCC1CN(C)C(=S)c2cnccc2O1 (stereo not drawn) | 1.08 | 
